Data on seven molecules can be found in publication PMC12564639, “Discovery of a Novel Anticoagulant Cystine Knot Peptide from Spider Venom Gland Transcriptome” (International Journal of Molecular Sciences, 2025).

Like-named read-outs stand apart in the source and are kept apart here. Bridge positions count the residues as written; N and C are the ends. Square brackets hold non-standard residues; d marks the D form. Ends that are not written are not given here. * marks the point of attachment. pNA = O=[N+]([O-])c1ccc(N*)cc1; pGlu = O=C1CC[C@@H](C(=O)O)N1

The conditions of data set [1]: ref Diapharma Group (supplier named); enzyme not given; cited from earlier work. From the text:
Human Activated Protein C (APC-1.0) was purchased from Enzyme Research Laboratories, Inc., South Bend, IN, USA. […] Activated Partial Thromboplastin Time (APTT) Test Kit (TC0306) was bought from Senkey Biotechnology Co., Ltd., Kunming, China. Prothrombin Time (PT) Test Kit (GMS10176) was purchased from GENMED Scientifics Inc., Shanghai, China. Streptavidin (SA) Biosensors (18-5019) were obtained from Sartorius AG, Göttingen, Lower Sa ...

The conditions of data set [2]: cited from earlier work. The source says:
(§1) Anticoagulants are standard therapy for venous thromboembolism and arterial thrombosis-mediated disorders, particularly in acute settings.

In data set [3] the test system is mouse tail bleeding. Put plainly: Tail bleeding time. It counts as in vivo, C57BL/6J mice. Conditions: heparin sodium 1000 U/kg i.v., 10 min after administration; n = 6; vehicle 89.8 s. How it is done: The C57BL/6J mice (male, 6–8 weeks old) were purchased from Beijing Vital River Laboratory Animal Technology Co., Ltd. (Beijing, China). All animal studies were performed under the approval of the Ethics Committee of the Laboratory Animal Welfare of the Kunming Institute of Zoology, Chinese Academy of Sciences (IACUC-RE-2025-03-010).
The mouse tail-bleeding assay was performed to evaluate the bleeding risk associated with GC38 treatment. Male C57BL/6J mice (6–8 weeks, n = 6 per group) were randomized to receive intravenous injection of PBS (negative control), GC38 (2 or 4 mg/kg in PBS), or heparin sodium (1000 U/kg, positive control). The assay was conducted 10 min after administration. Mice were anesthetized, and a 2 mm segment of the tail tip was surgically transected using a sterile scalpel. Immediately after the incision, the tail was immersed in prewarmed PBS (37 °C) to facilitate blood flow. Bleeding time was recorded from the moment of the incision until the complete cessation of bleeding (no blood flow for 60 s).

Data set [4] has as its system thrombin. The conditions noted are these: cited from earlier work.
From the text: as §1

The conditions of data set [5]: venom of Eresus niger; cited from earlier work. From the text:
Studies have focused on the use of venom peptides for anticoagulation therapy. […] These peptides typically target key components of the coagulation cascade with high specificity, potency, and selectivity.

The target of data set [6] is Human Activated Protein C (human) (UniProt P04070).

Regarding “[pGlu]-Pro-Arg-pNA [S-2366, Chromogenix substrate S-2366]”, in data set [1], the Km was 200 µM and the kcat was 190 s⁻¹.
As to “bivalirudin: Another synthetic peptide, bivalirudin”, the major bleeding events entry in data set [2] (percutaneous coronary intervention (PCI), compared to heparin) is reported as “reduction in major bleeding events compared to heparin”.
Consider heparin, for which the bleeding risk entry in data set [2] (clinical) was “significant bleeding risks”.
In data set [3], heparin sodium [reference compound] registered a tail bleeding time of 127.6 s.
As for hirudin, the thrombin inhibition entry in data set [4] is on record as “thrombin inhibitor”. In addition, the bleeding risk entry in data set [2] (heparin-induced thrombocytopenia (HIT) management) is recorded as “lower bleeding risk than conventional therapies”.
For phospholipase A2, the anticoagulant activity entry in data set [5] is listed as “anticoagulant activity”.
GCSGKGARCAPSKCCSGLSCGRHGGNMYKSCEWNWKTG (disulfide 14-31, 2-15, 9-20) [GC38]: in data set [6], the APC enzymatic activity at Vmax on chromogenic substrate S-2366 (APC 0.7145 μM, S-2366 402.1 μM), GC38 0.1 to 10 μM, concentration-dependent; highest value at 10 μM was found to be 171%.

By Km is commonly meant the substrate concentration at which the rate is half of its maximum. Usually kcat stands for the number of substrate molecules converted per active site and unit of time at saturation.
